Data reported in patent publication US20220041691A1, “METHODS FOR DIAGNOSING OR TREATING POST-TRAUMATIC STRESS DISORDER, AND COMPOSITIONS THEREFOR” (Centre for Addiction and Mental Health, priority 2018, published 2022).

What was measured:
[1] = test system: GR and FKBP52 colocalization in primary neurons; test: Immunocytochemistry of GR and FKBP52 in primary mouse neurons; assay type: cell-based; conditions: primary neurons 8 DIV, 10 μM, 45 min
Method: Cortical tissues from embryonic day (E14) mouse brains were dissected out, incubated with 0.25% trypsin for 15 min at 37° C., and dissociated by mechanical trituration. Neurons were then plated at a desired density onto glass coverslips previously coated with 0.1 mg/ml poly-d-lysine, and grown in Neurobasal medium with 1× Glutamax, 1×B27, 100 U/ml penicillin and 100 μg/ml streptomycin in an incubator (37° C., 5% CO2). Either 10 μM of TAT-GRpep, 10 μM TAT-control peptide or saline were added in culture plates for 45 min in advance at 8 days in vitro (8 DIV).
Cultured neurons were fixed in 4% PFA/4% sucrose, permeabilized with 0.1M PBS containing 0.1% Triton X-100 for 10 min, and blocked for 1 hour with 1% bovine serum albumin in PBS at room temperature. They were incubated with primary antibodies overnight at 4° C. and secondary antibodies for 1 hour at room temperature. The following primary antibodies were used: anti-GR (1:200; Thermo), anti-FKBP51 (1:200; Abcam) and anti-FKBP52 (1:200; Abcam). […] DAPI was used to stain cell nuclei.

[2] = test system: GR phosphorylation at S211; test: Western blot of GR phosphorylation at S211 in brain lysate of fear-conditioned mice; assay type: in vivo, mouse; conditions: brain lysate of fear-conditioned mice injected with TAT or TAT-GRpep; p<0.05, n=3
Source text: To further investigate these findings, surface plasmon resonance (SPR) was used to estimate association and dissociation rates between GR and FKBP51. […] Thus, GR S211 phosphorylation seems to reduce GR affinity for FKBP51. Conversely, disruption of the GR-FKBP51 complex with TAT-GRpep could increase GR S211 phosphorylation, which is what was observed when comparing fear-conditioned mice treated with TAT-GRpep vs. TAT control or no treatment (FIG. 5 I-J).
Co-immunoprecipitation and Western blot analyses were performed as previously described.^24, 25, 26 For co-immunoprecipitation, 500˜1000 μg solubilized protein was extracted from whole mouse brain and incubated with primary antibody or control IgG (2˜4 μg) for 4 hrs at 4° C., followed by the addition of 25 μl protein A/G plus agarose (Santa Cruz Biotechnology) for 12 hrs. Pellets were washed, boiled for 5 min in SDS sample buffer and subjected to SDS-PAGE. 50˜100 μg of total protein extract was used as control in each experiment. After transfer of proteins into nitrocellulose, membranes were Western blotted with the primary antibodies. The intensity of protein level was quantified by densitometry (software: ImageLab, Bio-Rad). […]

fear-conditioned mice = test: Cued fear conditioning, systemic (i.p.) peptide delivery; assay type: in vivo, mouse; conditions: p<0.05
Method: Next, testing was performed to determine whether TAT-GRpep can block the emergence of PTSD-like fear-related behaviours when administrated systemically. Animals underwent five rounds of CS-US pairings followed by 5 days of extinction training before the expression of fear in response to the learned cue was assessed (FIG. 4A). Mice were injected with either TAT-GRpep or TAT intraperitoneally (3 nmol/g, i.p.) one hour before the test.
Furthermore, testing was performed to determine whether disrupting the GR-FKBP51 complex reduced consolidation of cued fear memory. Thus, TAT or TAT-GRpep was administered two hours after the end of fear conditioning training (FIG. 4C), before five consecutive daily extinction sessions of cue exposure without shock. […] This may therefore indicate a potential approach to both preventing and treating PTSD-like behaviour in the aftermath of trauma, for example.
Animals were first given a five-minute habituation to the apparatus (Habitest, Colbourne Instruments). Then, animals were exposed to 30 seconds of cue exposure (an in-house white light), which co-terminated with one second of foot-shock (0.5 mA). The cue exposure and foot-shock were repeated five times, intermitted by 5-minute inter-trial intervals. Following the conditioning, animals were subjected to 2-5 days of extinction before the assessment of their cued fear memory, which consisted of 15 rounds of 30-second cue exposure, with 30-second inter-trial intervals (adapted from Andero et al.).^48
The expression of fear (in a different context from training) was assessed 24 hours after the last extinction training. The assessment consisted of a three-minute period of habituation (absence of CS) and a sequent three-minute trial of conditioned cues. The duration of freezing behaviors was recorded by a blinded experimenter. Peptide treatment was either administered 2 hours after the conditioning or 30 minutes before the behavioral assessment.

GR-FKBP51 complex = biological target: T1, GR-FKBP51 complex (Mus musculus, UniProt Q64378); test: Co-immunoprecipitation of GR-FKBP51 complex in brain and lymphocyte lysate of fear-conditioned mice injected with peptide; assay type: in vivo; conditions: brain lysate of fear-conditioned mice injected with TAT or TAT-GRpep; p<0.05, n=3
T1 construct: from tissue; host or cells: C57Bl/6 mouse brain (acute slices; whole-brain lysate) and blood lymphocytes
T1 sequence (Q64378 1-456): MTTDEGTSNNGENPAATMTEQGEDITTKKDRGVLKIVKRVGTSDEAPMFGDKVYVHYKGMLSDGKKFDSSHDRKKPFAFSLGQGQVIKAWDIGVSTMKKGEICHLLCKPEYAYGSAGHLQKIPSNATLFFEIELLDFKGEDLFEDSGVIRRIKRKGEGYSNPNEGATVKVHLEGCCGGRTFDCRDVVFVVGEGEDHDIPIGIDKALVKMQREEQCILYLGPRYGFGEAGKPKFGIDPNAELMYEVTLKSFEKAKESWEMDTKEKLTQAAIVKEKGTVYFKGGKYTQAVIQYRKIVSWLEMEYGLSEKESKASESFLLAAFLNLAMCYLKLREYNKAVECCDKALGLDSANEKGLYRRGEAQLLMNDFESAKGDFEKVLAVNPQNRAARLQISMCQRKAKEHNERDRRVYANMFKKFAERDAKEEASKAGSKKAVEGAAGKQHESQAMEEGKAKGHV
Method: Furthermore, testing was performed to determine whether disrupting the GR-FKBP51 complex reduced consolidation of cued fear memory. Thus, TAT or TAT-GRpep was administered two hours after the end of fear conditioning training (FIG. 4C), before five consecutive daily extinction sessions of cue exposure without shock.
Co-immunoprecipitation and Western blot analyses were performed as previously described.^24, 25, 26 For co-immunoprecipitation, 500˜1000 μg solubilized protein was extracted from whole mouse brain and incubated with primary antibody or control IgG (2˜4 μg) for 4 hrs at 4° C., followed by the addition of 25 μl protein A/G plus agarose (Santa Cruz Biotechnology) for 12 hrs. Pellets were washed, boiled for 5 min in SDS sample buffer and subjected to SDS-PAGE. 50˜100 μg of total protein extract was used as control in each experiment. After transfer of proteins into nitrocellulose, membranes were Western blotted with the primary antibodies. The intensity of protein level was quantified by densitometry (software: ImageLab, Bio-Rad).

[3] = biological target: T2, Flag-tagged GR S211E mutant (phosphomimetic GR mutant) (human, UniProt P04150 1-777); test: SPR (Reichert SR7500DC, 25 C), FLAG-tagged GR captured on FLAG antibody-coated chip, GST-FKBP51_TPR injected
T2 construct: also called S211E-GR; S211E GR; not shown: Flag tag
T2 sequence: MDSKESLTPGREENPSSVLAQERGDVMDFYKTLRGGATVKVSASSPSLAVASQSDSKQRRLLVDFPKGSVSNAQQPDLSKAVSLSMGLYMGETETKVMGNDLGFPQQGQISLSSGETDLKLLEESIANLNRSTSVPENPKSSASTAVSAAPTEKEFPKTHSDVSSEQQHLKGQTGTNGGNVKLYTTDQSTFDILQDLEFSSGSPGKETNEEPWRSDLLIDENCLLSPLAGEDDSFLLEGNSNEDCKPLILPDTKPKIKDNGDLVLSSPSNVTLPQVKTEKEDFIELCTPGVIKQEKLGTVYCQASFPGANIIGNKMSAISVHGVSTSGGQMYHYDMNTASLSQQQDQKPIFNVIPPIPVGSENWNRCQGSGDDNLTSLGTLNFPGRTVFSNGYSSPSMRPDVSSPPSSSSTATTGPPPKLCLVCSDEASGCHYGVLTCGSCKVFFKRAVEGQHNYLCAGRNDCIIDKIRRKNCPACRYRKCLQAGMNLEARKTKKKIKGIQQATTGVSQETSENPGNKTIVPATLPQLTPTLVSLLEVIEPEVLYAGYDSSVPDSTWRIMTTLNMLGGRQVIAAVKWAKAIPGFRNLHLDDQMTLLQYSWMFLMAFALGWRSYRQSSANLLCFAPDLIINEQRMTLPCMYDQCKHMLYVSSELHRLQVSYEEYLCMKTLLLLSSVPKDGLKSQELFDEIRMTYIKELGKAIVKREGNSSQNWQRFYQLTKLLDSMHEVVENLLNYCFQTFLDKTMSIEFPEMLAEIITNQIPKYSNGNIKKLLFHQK

[4] = biological target: T3, Flag-tagged GR, wild-type (human, UniProt P04150 1-777); test: as above
T3 construct: Expressed in HEK293(T) cells; also called Flag-GR; WT-GR; not shown: Flag tag
T3 sequence: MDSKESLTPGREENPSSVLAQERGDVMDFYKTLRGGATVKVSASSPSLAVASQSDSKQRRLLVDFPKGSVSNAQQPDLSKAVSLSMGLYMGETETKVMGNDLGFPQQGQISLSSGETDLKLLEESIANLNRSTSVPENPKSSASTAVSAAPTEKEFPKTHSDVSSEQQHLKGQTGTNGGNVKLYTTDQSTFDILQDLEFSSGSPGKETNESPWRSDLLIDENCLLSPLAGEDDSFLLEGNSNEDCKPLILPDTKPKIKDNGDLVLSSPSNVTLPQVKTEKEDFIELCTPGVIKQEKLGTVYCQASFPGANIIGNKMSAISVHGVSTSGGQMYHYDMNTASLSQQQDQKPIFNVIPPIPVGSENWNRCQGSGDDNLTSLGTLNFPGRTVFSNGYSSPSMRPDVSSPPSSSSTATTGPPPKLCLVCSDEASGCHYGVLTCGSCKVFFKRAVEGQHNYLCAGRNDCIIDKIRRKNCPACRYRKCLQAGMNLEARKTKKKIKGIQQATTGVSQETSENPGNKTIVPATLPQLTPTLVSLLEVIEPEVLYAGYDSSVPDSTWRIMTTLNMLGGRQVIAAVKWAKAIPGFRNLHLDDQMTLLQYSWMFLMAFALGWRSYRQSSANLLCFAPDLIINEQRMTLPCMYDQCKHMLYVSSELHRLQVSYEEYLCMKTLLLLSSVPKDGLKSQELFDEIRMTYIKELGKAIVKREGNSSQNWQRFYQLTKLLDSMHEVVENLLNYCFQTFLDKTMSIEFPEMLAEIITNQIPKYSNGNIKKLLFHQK

[5] = biological target: T4, Flag-tagged GR S211A mutant (non-phosphorylated GR mutant) (human, UniProt P04150 1-777); test: as above
T4 construct: also called S211A-GR; S211A GR; not shown: Flag tag
T4 sequence: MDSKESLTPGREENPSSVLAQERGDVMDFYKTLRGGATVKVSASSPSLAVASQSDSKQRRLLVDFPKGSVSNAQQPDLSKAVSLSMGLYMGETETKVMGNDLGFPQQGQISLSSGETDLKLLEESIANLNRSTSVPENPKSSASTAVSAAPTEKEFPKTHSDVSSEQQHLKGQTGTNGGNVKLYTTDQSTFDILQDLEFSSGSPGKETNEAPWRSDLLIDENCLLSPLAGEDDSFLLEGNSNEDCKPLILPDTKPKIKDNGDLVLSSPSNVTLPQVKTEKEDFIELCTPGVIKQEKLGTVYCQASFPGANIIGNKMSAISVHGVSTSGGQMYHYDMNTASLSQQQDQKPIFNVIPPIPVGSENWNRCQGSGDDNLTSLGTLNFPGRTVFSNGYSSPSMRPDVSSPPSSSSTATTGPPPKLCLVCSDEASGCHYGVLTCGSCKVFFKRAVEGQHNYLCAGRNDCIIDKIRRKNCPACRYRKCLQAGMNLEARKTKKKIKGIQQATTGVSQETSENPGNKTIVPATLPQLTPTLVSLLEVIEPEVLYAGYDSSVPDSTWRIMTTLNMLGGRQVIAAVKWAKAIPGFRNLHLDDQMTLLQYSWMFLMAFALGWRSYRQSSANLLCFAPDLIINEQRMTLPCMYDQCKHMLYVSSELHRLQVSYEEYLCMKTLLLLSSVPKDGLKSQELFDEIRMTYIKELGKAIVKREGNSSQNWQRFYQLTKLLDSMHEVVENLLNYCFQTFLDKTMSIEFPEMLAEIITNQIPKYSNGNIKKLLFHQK

Molecule | nuclear GR-FKBP52 colocalization [1] | GR phosphorylation at S211 [2] | duration of freezing with the CS (fear-conditioned mice; 3 nmol/g i.p. one hour before the test, after 5 days of extinction training, three-minute cue trial) [s] | duration of freezing with the CS (consolidation of cued fear memory) (fear-conditioned mice; peptide administered two hours after end of fear conditioning, tested 24 hours after last of five daily extinction sessions) [s] | GR-FKBP51 complex level in brain (co-immunoprecipitation) (GR-FKBP51 complex) | Kd [3] [µM] | Kd [4] [µM] | Kd [5] [µM]
TAT: control peptide: cell-membrane transduction domain of the human immunodeficiency virus-type 1 TAT protein (GRKKRRQRRRPQ; Amino Acid Sequence of the Cell-Membrane Transduction Domain of HIV-Type 1 Transactivator of Transcription (TAT) Protein) [reference compound] | almost negligible amount of GR-FKBP52 complex | not | 64.2 ± 10.7 | 71.0 ± 3.6 | not |  |  | 
GST-FKBP51_TPR (GST fusion of the tetratricopeptide repeat domain of FKBP51) (other, also called GST-TPR; FKBP51 TPR domain; not shown: glutathione S-transferase (GST) tag; vector stated only for the GR fragments (pGEX-4T3)) EMDTKEKLEQAAIVKEKGTVYFKGGKYMQAVIQYGKIVSWLEMEYGLSEKESKASESFLLAAFLNLAMCYLKLREYTKAVECCDKALGLDSANEKGLYRRGEAQLLMNEFESAKGDFEKVLEVNPQNKAARLQISMCQKKAKEHNERDRRIYANMFKKFAEQDAKEEANKAMGKKTSEGVTNEKGTDSQAMEEEKPEGHV |  |  |  |  |  | 3.9 | 3.31 | 0.412
